From patent US20260078135A1, “POLYCYCLIC QUINAZOLINES FOR INHIBITION OF ERBB2” (Enliven Inc., priority 2022, published 2026) come the findings set out here.

The target of assay [1] is T1, phosphorylated EGFR (pEGFR) (Homo sapiens, UniProt P00533).
T1 construct: performed to measure phosphorylated EGFR levels using A431 cells (10% FBS); endogenous in cells; host or cells: A431
As to the kind of experiment: Detection of phosphorylated EGFR (pEGFR) by AlphaLISA in EGF-stimulated A431 cells. It is filed as cell-based. The following applies: A431 cells (10% FBS), 4 hours incubation, EGF 30 ng/mL for 10 minutes. The procedure:
Enzyme-linked immunosorbent assays (ELISA) were performed to measure phosphorylated EGFR levels using A431 cells (10% FBS). A431 (1.0*10^4 cells/40 μl/well) cells were seeded in 384 well. Compounds were dissolved in DMSO, serially diluted in DMSO and then were added, mixed, and incubated for 4 hours at 37° C., 5% C02. Following the 4-hours incubation, cells were stimulated for 10 minutes with EGF (Invitrogen, cat #PHG0311) at a final concentration of 30 ng/mL in the incubator. The media was aspirated and cells were lysed in 10 μL lysis buffer with protease and phosphatase inhibitors (PerkinElmer, cat #ALSU-PEGFR-A50K). The plates were placed on a shaker for 5 μminutes and then incubated for 30 min at 4° C. for complete lysis. The lysate was transferred to an Optiplate (Perkin Elmer, cat #6007290).
Acceptor mix (PerkinElmer, cat #ALSU-PEGFR-A50K) was prepared just before use and 5 μL was dispensed to all the wells, followed by a 1.5-2 h incubation at room temperature in dark. The donor mix (PerkinElmer, cat #ALSU-PEGFR-A50K) was prepared under low light conditions prior to use and 5 μl of donor mix was added to all the wells under subdued lighting or green filters. The plates were placed on a shaker for 5 μmin, sealed, and incubated overnight at room temperature in dark. Plates were read on the Envision (PerkinElmer) using standard AlphaLISA settings.
The percentage of inhibition on EGFR phosphorylation was calculated following equation: % Inhibition=100×(LumHC−LumSample)/(LumHC−LumLC). The low and high controls (LC/HC) are generated from lysate from wells with cells treated with DMSO or […] Staurosporine (BioAustralis, cat #BIA-S1086), […]. IC50 values were calculated by fitting the Curve using XLfit (v5.3.1.3), equation 201: Y=Bottom+(Top−Bottom)/(1+10^((Log IC50−X)*HillSlope)).

The target of assay [2] is T2, phosphorylated ERBB2 (pERBB2) (Homo sapiens, UniProt P04626).
T2 construct: endogenous in cells; host or cells: BT-474
As to the kind of experiment: Detection of phosphorylated ERBB2 (pERBB2) by ELISA in BT-474 cells. It is filed as cell-based. As to conditions: four hour incubation. As for the experimental part: BT-474 cells were seeded into a 96-well at 2.0*10^4 cells/100 μl/well. Compounds were dissolved and serially diluted in DMSO. The compounds were then were added, mixed, and incubated for four hours at 37° C., 5% CO2. Compounds were added using four-fold dilutions at final concentrations ranging from 10 μM to 0.01 nM. Following the four hour incubation with compounds, cell lysates were prepared. Plates were centrifuged for 5 μmin at 3000 RPM, and supernatant was removed from each well. Cells were washed 3 times by resuspension in 150 μl PBS, followed by centrifugation and removal of the supernatant, as above. 100 μl of cell lysis buffer (Boston BioProducts, cat #BP-115D) supplied with 1× complete ULTRA cocktail inhibitor (Thermo ScientificTM, cat #78443) was then added to the washed cells. Cells were incubated with lysis buffer for 1 hour at 4° C., and then stored at -80° C. Enzyme-linked immunosorbent assays (ELISA) were performed to measure phosphorylated ERBB2 levels. […] The next day, plates were washed with PBS+0.05% Tween20 (PBST). 150 μl of 5% BSA blocking solution was added for 1 hour at room temperature, with shaking. Plates were washed with PBST. Cell lysates were thawed and 100 μl of lysate was added to the ELISA plate. The plates were incubated for 2 hours at room temperature, with shaking. ELISA plates were then washed with PBST and 100 μl of an HRP-labeled detection antibody that binds phosphorylated tyrosine (R&D Systems, cat #841913) was added to each well. Plates were incubated for 1 hour at room temperature, with shaking. Plates were then washed with PBST, and 100 μl TMB substrate solution (R&D Systems, cat #DY999) was added. Plate were incubated in the dark for 20 minutes at room temperature. 50 μl of Stop solution (R&D Systems, cat #DY994) (50 μl) was added to each well and mixed. Optical density at 450 nm was read on an EnSpire plate reader (Perkin Elmer). The remaining kinase activity by calculated using the following formula: % Relative activity=100×([…]). The low and high control values (“LC” and “HC”) were generated from lysate from wells without cells or with cells treated with 0.1% DMSO, respectively.

T2 sequence (P04626 23-1255): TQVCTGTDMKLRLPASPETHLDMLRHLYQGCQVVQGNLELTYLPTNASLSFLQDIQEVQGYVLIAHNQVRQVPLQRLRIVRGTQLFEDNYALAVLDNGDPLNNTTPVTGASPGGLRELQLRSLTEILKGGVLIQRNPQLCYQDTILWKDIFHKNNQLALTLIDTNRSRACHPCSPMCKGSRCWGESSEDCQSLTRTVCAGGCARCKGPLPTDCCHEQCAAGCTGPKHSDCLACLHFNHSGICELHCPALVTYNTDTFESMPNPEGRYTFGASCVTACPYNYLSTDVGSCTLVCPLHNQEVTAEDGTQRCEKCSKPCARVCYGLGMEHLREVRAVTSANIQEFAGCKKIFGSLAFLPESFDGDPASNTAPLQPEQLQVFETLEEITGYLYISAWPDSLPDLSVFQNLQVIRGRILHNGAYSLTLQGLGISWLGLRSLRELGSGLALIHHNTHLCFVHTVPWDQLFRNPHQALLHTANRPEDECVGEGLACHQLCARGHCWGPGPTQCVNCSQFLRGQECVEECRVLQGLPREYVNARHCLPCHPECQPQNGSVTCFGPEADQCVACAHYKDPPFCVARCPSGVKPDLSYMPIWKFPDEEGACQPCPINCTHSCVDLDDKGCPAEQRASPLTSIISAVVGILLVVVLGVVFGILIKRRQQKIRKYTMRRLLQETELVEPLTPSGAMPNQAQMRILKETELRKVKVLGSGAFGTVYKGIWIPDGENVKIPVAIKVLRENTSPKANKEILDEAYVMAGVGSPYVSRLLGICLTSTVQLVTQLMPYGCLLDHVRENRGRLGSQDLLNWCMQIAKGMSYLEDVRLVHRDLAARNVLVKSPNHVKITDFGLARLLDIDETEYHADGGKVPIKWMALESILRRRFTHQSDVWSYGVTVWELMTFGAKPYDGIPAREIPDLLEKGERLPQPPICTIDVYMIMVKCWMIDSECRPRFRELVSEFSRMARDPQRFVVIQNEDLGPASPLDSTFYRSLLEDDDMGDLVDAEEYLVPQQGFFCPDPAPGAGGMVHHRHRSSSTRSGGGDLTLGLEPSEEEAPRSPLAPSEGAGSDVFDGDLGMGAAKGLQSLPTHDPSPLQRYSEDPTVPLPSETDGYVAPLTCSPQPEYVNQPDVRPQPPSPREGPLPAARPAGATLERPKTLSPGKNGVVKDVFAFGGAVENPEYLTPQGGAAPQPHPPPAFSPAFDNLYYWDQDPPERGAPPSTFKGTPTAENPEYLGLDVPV
T1 sequence (P00533 25-1210): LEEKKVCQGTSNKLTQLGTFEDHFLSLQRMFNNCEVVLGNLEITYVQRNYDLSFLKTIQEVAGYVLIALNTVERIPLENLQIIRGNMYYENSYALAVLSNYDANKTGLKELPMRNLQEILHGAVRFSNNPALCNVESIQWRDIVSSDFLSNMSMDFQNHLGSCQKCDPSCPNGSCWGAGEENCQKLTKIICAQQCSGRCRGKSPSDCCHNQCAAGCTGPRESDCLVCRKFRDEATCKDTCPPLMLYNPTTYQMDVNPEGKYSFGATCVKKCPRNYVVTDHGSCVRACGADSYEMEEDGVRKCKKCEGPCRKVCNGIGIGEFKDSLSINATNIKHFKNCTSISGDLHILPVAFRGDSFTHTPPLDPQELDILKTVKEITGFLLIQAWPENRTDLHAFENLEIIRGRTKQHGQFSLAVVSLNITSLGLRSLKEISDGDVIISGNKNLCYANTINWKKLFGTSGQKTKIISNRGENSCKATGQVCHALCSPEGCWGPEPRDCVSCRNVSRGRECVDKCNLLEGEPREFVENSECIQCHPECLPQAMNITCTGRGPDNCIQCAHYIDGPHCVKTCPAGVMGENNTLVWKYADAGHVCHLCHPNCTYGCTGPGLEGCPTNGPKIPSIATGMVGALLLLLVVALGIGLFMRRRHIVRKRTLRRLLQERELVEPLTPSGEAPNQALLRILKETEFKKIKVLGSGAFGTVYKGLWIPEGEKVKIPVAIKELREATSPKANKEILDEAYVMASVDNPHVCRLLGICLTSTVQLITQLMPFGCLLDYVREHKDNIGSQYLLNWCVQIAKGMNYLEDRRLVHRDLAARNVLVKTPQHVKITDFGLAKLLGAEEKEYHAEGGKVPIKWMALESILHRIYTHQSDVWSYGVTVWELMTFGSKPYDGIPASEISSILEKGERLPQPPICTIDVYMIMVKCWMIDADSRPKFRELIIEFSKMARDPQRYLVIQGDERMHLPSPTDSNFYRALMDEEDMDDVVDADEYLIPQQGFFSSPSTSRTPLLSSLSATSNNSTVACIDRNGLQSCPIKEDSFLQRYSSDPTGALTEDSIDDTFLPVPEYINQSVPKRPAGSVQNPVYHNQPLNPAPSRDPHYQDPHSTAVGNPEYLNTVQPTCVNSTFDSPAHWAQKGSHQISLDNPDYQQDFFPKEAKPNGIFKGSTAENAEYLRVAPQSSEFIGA

As to `Cc1cc(Nc2ncnc3cc4c(nc23)N2CCN(C)C[C@@H]2CO4)ccc1Oc1ccn2ncnc2c1` [Compound 36, (R)—N-(4-([1,2,4]triazolo[1,5-a]pyridin-7-yloxy)-3-methylphenyl)-3-methyl-1,2,3,4,4a,5-hexahydropyrazino[1,2-d]pyrimido[4′,5′:5,6]pyrido[3,2-b][1,4]oxazin-11-amine], the values for the IC50 in assay [1] and in assay [2] were above 10000 nM and 234 nM, respectively.
On the same counts, the results for `Cc1cc(Nc2ncnc3cc4c(nc23)N2CCNC[C@H]2CO4)ccc1Oc1ccc2c(c1)ncn2C` [Compound 37, (S)—N-(3-methyl-4-((1-methyl-1H-benzo[d]imidazol-5-yl)oxy)phenyl)-1,2,3,4,4a,5-hexahydropyrazino[1,2-d]pyrimido[4′,5′:5,6]pyrido[3,2-b][1,4]oxazin-11-amine] are above 10000 nM and 77.6 nM.
In the same order, the values of `Cc1cc(Nc2ncnc3cc4c(nc23)N2CCN(C)C[C@H]2CO4)ccc1Oc1ccc2c(c1)ncn2C` [Compound 38, (S)-3-methyl-N-(3-methyl-4-((1-methyl-1H-benzo[d]imidazol-5-yl)oxy)phenyl)-1,2,3,4,4a,5-hexahydropyrazino[1,2-d]pyrimido[4′,5′:5,6]pyrido[3,2-b][1,4]oxazin-11-amine] are above 10000 nM and 60.6 nM.
In the same order, the values of `Cc1cc(Nc2ncnc3cc4c(nc23)N2CCNC[C@@H]2CO4)ccc1Oc1ccc2c(c1)ncn2C` [Compound 39, (R)—N-(3-methyl-4-((1-methyl-1H-benzo[d]imidazol-5-yl)oxy)phenyl)-1,2,3,4,4a,5-hexahydropyrazino[1,2-d]pyrimido[4′,5′:5,6]pyrido[3,2-b][1,4]oxazin-11-amine] are above 10000 nM and 279 nM.
In the case of `Cc1cc(Nc2ncnc3cc4c(nc23)N2CCN(C)C[C@@H]2CO4)ccc1Oc1ccc2c(c1)ncn2C` [Compound 40, (R)-3-methyl-N-(3-methyl-4-((1-methyl-1H-benzo[d]imidazol-5-yl)oxy)phenyl)-1,2,3,4,4a,5-hexahydropyrazino[1,2-d]pyrimido[4′,5′:5,6]pyrido[3,2-b][1,4]oxazin-11-amine], the IC50 in assay [1] is above 10000 nM; in assay [2], 153 nM.
In the same order, the values of `Cc1cc(Nc2ncnc3ccc4c(c23)OC[C@H]2CNCCN42)ccc1Oc1ccn2ncnc2c1` [Compound 41, (R)—N-(4-([1,2,4]triazolo[1,5-a]pyridin-7-yloxy)-3-methylphenyl)-6,6a,7,8,9,10-hexahydropyrazino[1′,2′:4,5][1,4]oxazino[2,3-f]quinazolin-4-amine diformic acid] are above 10000 nM and 57.7 nM.
Turning to `Cc1cc(Nc2ncnc3ccc4c(c23)OC[C@H]2CN(C)CCN42)ccc1Oc1ccn2ncnc2c1` [Compound 42, (R)—N-(4-([1,2,4]triazolo[1,5-a]pyridin-7-yloxy)-3-methylphenyl)-8-methyl-6,6a,7,8,9,10-hexahydropyrazino[1′,2′:4,5][1,4]oxazino[2,3-f]quinazolin-4-amine], the IC50 is above 10000 nM in assay [1] and 31.5 nM in assay [2].
In the same order, the values of `Cc1cc(Nc2ncnc3ccc4c(c23)OC[C@@H]2CNCCN42)ccc1Oc1ccn2ncnc2c1` [Compound 43, (S)—N-(4-([1,2,4]triazolo[1,5-a]pyridin-7-yloxy)-3-methylphenyl)-6,6a,7,8,9,10-hexahydropyrazino[1′,2′:4,5][1,4]oxazino[2,3-f]quinazolin-4-amine] are above 10000 nM and 76.5 nM.
Take `Cc1cc(Nc2ncnc3ccc4c(c23)OC[C@@H]2CN(C)CCN42)ccc1Oc1ccn2ncnc2c1` [Compound 44, (S)—N-(4-([1,2,4]triazolo[1,5-a]pyridin-7-yloxy)-3-methylphenyl)-8-methyl-6,6a,7,8,9,10-hexahydropyrazino[1′,2′:4,5][1,4]oxazino[2,3-f]quinazolin-4-amine]: the values for the IC50 in assay [1] and in assay [2] were above 10000 nM and 218 nM, respectively.
`Cc1cc(Nc2ncnc3ccc4c(c23)OC[C@H]2CNCCN42)ccc1Oc1ccc2c(c1)ncn2C` [Compound 45, (R)—N-(3-methyl-4-((1-methyl-1H-benzo[d]imidazol-5-yl)oxy)phenyl)-6,6a,7,8,9,10-hexahydropyrazino[1′,2′:4,5][1,4]oxazino[2,3-f]quinazolin-4-amine]: the IC50 in assay [1] is above 10000 nM; in assay [2], 54 nM.
On the same counts, the results for `Cc1cc(Nc2ncnc3ccc4c(c23)OC[C@H]2CN(C)CCN42)ccc1Oc1ccc2c(c1)ncn2C` [Compound 46, (R)-8-methyl-N-(3-methyl-4-((1-methyl-1H-benzo[d]imidazol-5-yl)oxy)phenyl)-6,6a,7,8,9,10-hexahydropyrazino[1′,2′:4,5][1,4]oxazino[2,3-f]quinazolin-4-amine] are above 10000 nM and 22.3 nM.
On the same counts, the results for `Cc1cc(Nc2ncnc3ccc4c(c23)OC[C@@H]2CNCCN42)ccc1Oc1ccc2c(c1)ncn2C` [Compound 47, (S)—N-(3-methyl-4-((1-methyl-1H-benzo[d]imidazol-5-yl)oxy)phenyl)-6,6a,7,8,9,10-hexahydropyrazino[1′,2′:4,5][1,4]oxazino[2,3-f]quinazolin-4-amine] are above 10000 nM and 91.2 nM.
Regarding `Cc1cc(Nc2ncnc3ccc4c(c23)OC[C@@H]2CN(C)CCN42)ccc1Oc1ccc2c(c1)ncn2C` [Compound 48, (S)-8-methyl-N-(3-methyl-4-((1-methyl-1H-benzo[d]imidazol-5-yl)oxy)phenyl)-6,6a,7,8,9,10-hexahydropyrazino[1′,2′:4,5][1,4]oxazino[2,3-f]quinazolin-4-amine], the IC50 in assay [1] was above 10000 nM; in assay [2], 146 nM.
On the same counts, the results for `Cc1cc(Nc2ncnc3ccc4c(c23)OC[C@@H]2CN4CCN2)ccc1Oc1ccc2c(c1)ncn2C` [Compound 53, (3S)—N-(3-methyl-4-((1-methyl-1H-benzo[d]imidazol-5-yl)oxy)phenyl)-3,4,5,6-tetrahydro-2H-3,7-methano[1,4,7]oxadiazonino[2,3-f]quinazolin-13-amine] are above 10000 nM and 541 nM.
On the same counts, the results for `Cc1cc(Nc2ncnc3ccc4c(c23)OC[C@@H]2CN4CCN2C)ccc1Oc1ccc2c(c1)ncn2C` [Compound 54, (3S)-4-methyl-N-(3-methyl-4-((1-methyl-1H-benzo[d]imidazol-5-yl)oxy)phenyl)-3,4,5,6-tetrahydro-2H-3,7-methano[1,4,7]oxadiazonino[2,3-f]quinazolin-13-amine] are above 10000 nM and 82.1 nM.
On the same counts, the results for `Cc1cc(Nc2ncnc3ccc4c(c23)OC[C@H]2CN4CCN2)ccc1Oc1ccc2c(c1)ncn2C` [Compound 55, (3R)—N-(3-methyl-4-((1-methyl-1H-benzo[d]imidazol-5-yl)oxy)phenyl)-3,4,5,6-tetrahydro-2H-3,7-methano[1,4,7]oxadiazonino[2,3-f]quinazolin-13-amine] are above 10000 nM and 108 nM.
Regarding `CC(=O)N1CCN2c3ccc4ncnc(Nc5ccc(Oc6ccn7ncnc7c6)c(C)c5)c4c3OC[C@H]2C1` [Compound 109, (R)-1-(4-((4-([1,2,4]triazolo[1,5-a]pyridin-7-yloxy)-3-methylphenyl)amino)-6a,7,9,10-tetrahydropyrazino[1′,2′:4,5][1,4]oxazino[2,3-f]quinazolin-8(6H)-yl)ethan-1-one], in assay [1], the 50% inhibitory concentration (IC50) is above 10000 nM.
